The record followed here is article PMC6054628.

Series [1] is described as follows: Head-to-tail native chemical ligation in two-module microfluidic flow: SEAon peptide amide rearranged to SEAE thioester (pH 1, TCEP, 60 min, 90 or 65 C), then MPAA (0.4 M)/Na2HPO4 (0.2 M) pH 7.3 cyclisation onto N-terminal Cys. The following applies: water (phosphate buffer, MPAA, TCEP; decane segmented carrier; 6 M Gn.HCl for 4l-p), 0.6 mM, 37.0 °C, 2 steps.
Series [2] can be described thus: Head-to-tail native chemical ligation in two-module microfluidic flow: SEAon peptide amide rearranged to SEAE thioester (pH 1, TCEP, 60 min, 90 or 65 C), then MPAA (0.4 M)/Na2HPO4 (0.2 M) pH 7.3 cyclisation onto N-terminal Cys, 4 min. To be noted: 30-membered ring, water (phosphate buffer, MPAA, TCEP; decane segmented carrier), 0.6 mM, 37.0 °C, 0.067 h, 2 steps, scale: %.

[3] abbreviates: the molecule shown is the open-chain precursor, 54-membered ring, 0.25 h.

In series [1] (setting [3]), “H-CTRGFCRCLCRRGVCRCI-SEAon (via SEAE thioester)” yielded a ring closure, yield over several steps of 34%. As to “H-CRCICTRGFCRCLCRRGV-SEAon (via SEAE thioester)”, in series [1] (setting [3]), the ring closure, yield over several steps was 29%.

On to “H-CRAIATRGFARALARRGV-SEAon (via SEAE thioester)”, for which the ring closure, yield over several steps in series [1] (the molecule shown is the open-chain precursor, 54-membered ring, 0.067 h) worked out at 37%.

In series [2] (from CC[C@H](C)[C@H](NC(=O)[C@@H](N)CS)C(=O)N[C@@H](CC(C)C)C(=O)N[C@@H](CCCCN)C(=O)N[C@@H](CCC(=O)O)C(=O)N1CCC[C@H]1C(=O)N[C@H](C(=O)N[C@@H](Cc1c[nH]cn1)C(=O)NCC(=O)N[C@H](C(=O)SCCNCCS)C(C)C)C(C)C), `CC[C@H](C)[C@@H]1NC(=O)[C@H](CS)NC(=O)[C@H](C(C)C)NC(=O)CNC(=O)[C@H](Cc2c[nH]cn2)NC(=O)[C@H](C(C)C)NC(=O)[C@@H]2CCCN2C(=O)[C@H](CCC(=O)O)NC(=O)[C@H](CCCCN)NC(=O)[C@H](CC(C)C)NC1=O` [H-CILKEPVHGV-SEAon (via SEAE thioester)] came in with a ring closure, conversion by HPLC of 56. The ring closure, yield over several steps in series [1] (from CC[C@H](C)[C@H](NC(=O)[C@@H](N)CS)C(=O)N[C@@H](CC(C)C)C(=O)N[C@@H](CCCCN)C(=O)N[C@@H](CCC(=O)O)C(=O)N1CCC[C@H]1C(=O)N[C@H](C(=O)N[C@@H](Cc1c[nH]cn1)C(=O)NCC(=O)N[C@H](C(=O)SCCNCCS)C(C)C)C(C)C, 30-membered ring, 0.067 h) came to 46%. For the molecule `CC[C@H](C)[C@@H]1NC(=O)[C@H](CS)NC(=O)[C@@H]2CCCN2C(=O)CNC(=O)[C@H](Cc2c[nH]cn2)NC(=O)[C@H](C(C)C)NC(=O)CNC(=O)[C@H](CCC(=O)O)NC(=O)[C@H](CCCCN)NC(=O)[C@H](CC(C)C)NC1=O` [H-CILKEGVHGP-SEAon (via SEAE thioester)], the ring closure, conversion by HPLC in series [2] (from CC[C@H](C)[C@H](NC(=O)[C@@H](N)CS)C(=O)N[C@@H](CC(C)C)C(=O)N[C@@H](CCCCN)C(=O)N[C@@H](CCC(=O)O)C(=O)NCC(=O)N[C@H](C(=O)N[C@@H](Cc1c[nH]cn1)C(=O)NCC(=O)N1CCC[C@H]1C(=O)SCCNCCS)C(C)C) was 70. The ring closure, yield over several steps in series [1] (from CC[C@H](C)[C@H](NC(=O)[C@@H](N)CS)C(=O)N[C@@H](CC(C)C)C(=O)N[C@@H](CCCCN)C(=O)N[C@@H](CCC(=O)O)C(=O)NCC(=O)N[C@H](C(=O)N[C@@H](Cc1c[nH]cn1)C(=O)NCC(=O)N1CCC[C@H]1C(=O)SCCNCCS)C(C)C, 30-membered ring, 0.067 h) is 38%. `CC[C@H](C)[C@@H]1NC(=O)[C@H](CS)NC(=O)[C@H](CC(C)C)NC(=O)CNC(=O)[C@H](Cc2c[nH]cn2)NC(=O)[C@H](C(C)C)NC(=O)[C@@H]2CCCN2C(=O)CNC(=O)[C@H](CC(=O)O)NC(=O)[C@H](CC(C)C)NC1=O` [H-CILDGPVHGL-SEAon (via SEAE thioester)] gave a ring closure, conversion by HPLC in series [2] (from CC[C@H](C)[C@H](NC(=O)[C@@H](N)CS)C(=O)N[C@@H](CC(C)C)C(=O)N[C@@H](CC(=O)O)C(=O)NCC(=O)N1CCC[C@H]1C(=O)N[C@H](C(=O)N[C@@H](Cc1c[nH]cn1)C(=O)NCC(=O)N[C@@H](CC(C)C)C(=O)SCCNCCS)C(C)C) of 80. The same molecule displayed a ring closure, yield over several steps in series [1] (from CC[C@H](C)[C@H](NC(=O)[C@@H](N)CS)C(=O)N[C@@H](CC(C)C)C(=O)N[C@@H](CC(=O)O)C(=O)NCC(=O)N1CCC[C@H]1C(=O)N[C@H](C(=O)N[C@@H](Cc1c[nH]cn1)C(=O)NCC(=O)N[C@@H](CC(C)C)C(=O)SCCNCCS)C(C)C, 30-membered ring, 0.067 h) of 64%. On to “H-CQPWSSMIPHEHSFLPSSYRGKDLQENY-SEAon (via SEAE thioester)”, for which the ring closure, yield over several steps in series [1] (the molecule shown is the open-chain precursor, 84-membered ring, 0.25 h) is 41%. `CC[C@H](C)[C@@H]1NC(=O)[C@H](CS)NC(=O)[C@H](C(C)C)NC(=O)CNC(=O)[C@H](Cc2c[nH]cn2)NC(=O)[C@H](C(C)C)NC(=O)[C@@H]2CCCN2C(=O)CNC(=O)[C@H](CC(=O)O)NC(=O)[C@H](CC(C)C)NC1=O` [H-CILDGPVHGV-SEAon (via SEAE thioester)] displayed a ring closure, conversion by HPLC in series [2] (from CC[C@H](C)[C@H](NC(=O)[C@@H](N)CS)C(=O)N[C@@H](CC(C)C)C(=O)N[C@@H](CC(=O)O)C(=O)NCC(=O)N1CCC[C@H]1C(=O)N[C@H](C(=O)N[C@@H](Cc1c[nH]cn1)C(=O)NCC(=O)N[C@H](C(=O)SCCNCCS)C(C)C)C(C)C) of 43. In addition, the ring closure, yield over several steps in series [1] (from CC[C@H](C)[C@H](NC(=O)[C@@H](N)CS)C(=O)N[C@@H](CC(C)C)C(=O)N[C@@H](CC(=O)O)C(=O)NCC(=O)N1CCC[C@H]1C(=O)N[C@H](C(=O)N[C@@H](Cc1c[nH]cn1)C(=O)NCC(=O)N[C@H](C(=O)SCCNCCS)C(C)C)C(C)C, 30-membered ring, 0.067 h) stood at 37%. `CC[C@H](C)[C@@H]1NC(=O)[C@H](CS)NC(=O)[C@H](C(C)C)NC(=O)CNC(=O)[C@H](Cc2c[nH]cn2)NC(=O)[C@H](C(C)C)NC(=O)CNC(=O)[C@H](CCC(=O)O)NC(=O)[C@H](CCCCN)NC(=O)[C@H](CC(C)C)NC1=O` [H-CILKEGVHGV-SEAon (via SEAE thioester)] registered a ring closure, conversion by HPLC in series [2] (from CC[C@H](C)[C@H](NC(=O)[C@@H](N)CS)C(=O)N[C@@H](CC(C)C)C(=O)N[C@@H](CCCCN)C(=O)N[C@@H](CCC(=O)O)C(=O)NCC(=O)N[C@H](C(=O)N[C@@H](Cc1c[nH]cn1)C(=O)NCC(=O)N[C@H](C(=O)SCCNCCS)C(C)C)C(C)C) of 73. In series [1] (from CC[C@H](C)[C@H](NC(=O)[C@@H](N)CS)C(=O)N[C@@H](CC(C)C)C(=O)N[C@@H](CCCCN)C(=O)N[C@@H](CCC(=O)O)C(=O)NCC(=O)N[C@H](C(=O)N[C@@H](Cc1c[nH]cn1)C(=O)NCC(=O)N[C@H](C(=O)SCCNCCS)C(C)C)C(C)C, 30-membered ring, 0.067 h), this molecule showed a ring closure, yield over several steps of 46%. Turning to “H-CRCLCRRGVCRCICTRGF-SEAon (via SEAE thioester)”, in series [1] (setting [3]), the ring closure, yield over several steps is 23%. In the case of `CC[C@H](C)[C@@H]1NC(=O)[C@H](CS)NC(=O)[C@H](C(C)C)NC(=O)CNC(=O)[C@H](Cc2c[nH]cn2)NC(=O)[C@H](C(C)C)NC(=O)[C@@H]2CCCN2C(=O)CNC(=O)[C@H](CC(N)=O)NC(=O)[C@H](CC(C)C)NC1=O` [H-CILNGPVHGV-SEAon (via SEAE thioester)], the ring closure, conversion by HPLC in series [2] (from CC[C@H](C)[C@H](NC(=O)[C@@H](N)CS)C(=O)N[C@@H](CC(C)C)C(=O)N[C@@H](CC(N)=O)C(=O)NCC(=O)N1CCC[C@H]1C(=O)N[C@H](C(=O)N[C@@H](Cc1c[nH]cn1)C(=O)NCC(=O)N[C@H](C(=O)SCCNCCS)C(C)C)C(C)C) came to 63. This molecule returned a ring closure, yield over several steps in series [1] (from CC[C@H](C)[C@H](NC(=O)[C@@H](N)CS)C(=O)N[C@@H](CC(C)C)C(=O)N[C@@H](CC(N)=O)C(=O)NCC(=O)N1CCC[C@H]1C(=O)N[C@H](C(=O)N[C@@H](Cc1c[nH]cn1)C(=O)NCC(=O)N[C@H](C(=O)SCCNCCS)C(C)C)C(C)C, 30-membered ring, 0.067 h) of 66%. `CC[C@H](C)[C@@H]1NC(=O)CNC(=O)[C@H](Cc2c[nH]cn2)NC(=O)[C@H](C(C)C)NC(=O)CNC(=O)[C@H](CCC(=O)O)NC(=O)[C@H](CCCCN)NC(=O)[C@H](CC(C)C)NC(=O)[C@H]([C@@H](C)CC)NC(=O)[C@H](CS)NC1=O` [H-CILKEGVHGI-SEAon (via SEAE thioester)] yielded a ring closure, conversion by HPLC in series [2] (from CC[C@H](C)[C@H](NC(=O)[C@@H](N)CS)C(=O)N[C@@H](CC(C)C)C(=O)N[C@@H](CCCCN)C(=O)N[C@@H](CCC(=O)O)C(=O)NCC(=O)N[C@H](C(=O)N[C@@H](Cc1c[nH]cn1)C(=O)NCC(=O)N[C@H](C(=O)SCCNCCS)[C@@H](C)CC)C(C)C) of 96. The molecule further came in with a ring closure, yield over several steps in series [1] (from CC[C@H](C)[C@H](NC(=O)[C@@H](N)CS)C(=O)N[C@@H](CC(C)C)C(=O)N[C@@H](CCCCN)C(=O)N[C@@H](CCC(=O)O)C(=O)NCC(=O)N[C@H](C(=O)N[C@@H](Cc1c[nH]cn1)C(=O)NCC(=O)N[C@H](C(=O)SCCNCCS)[C@@H](C)CC)C(C)C, 30-membered ring, 0.067 h) of 51%.
